Measured values as given in article PMC8371902, “Phase 1 study of M2698, a p70S6K/AKT dual inhibitor, in patients with advanced cancer” (Journal of Hematology & Oncology, 2021).
Where two headings read alike, the source gives them in different places.

System: patients with advanced metastatic cancer
Text: In this phase 1 study, dose escalation was followed by expansion cohorts of once-daily, oral M2698 in continuous 21-day cycles. Primary objectives were to determine the maximum tolerated dose (MTD), dose-limiting toxicities (DLTs), and recommended phase 2 dose (RP2D). Secondary objectives were to assess safety and tolerability, pharmacokinetics (PK, including food effect) and antitumor activity. Pharmacodynamic biomarker assessments were exploratory. Treatment was discontinued if there was disease progression, toxicity or consent withdrawal.
In Part 1, M2698 monotherapy was investigated in a dose escalation with a food effect cohort. In Part 2, M2698 was investigated as monotherapy (expansion cohort) to further characterize safety, tolerability and pharmacokinetics, and assess antitumor activity in PAM + patients without confounding markers (exploratory).
Dose escalation analysis included all patients who experienced a DLT and those who received ≥ 80% of planned M2698 doses in cycle 1 without experiencing a DLT. Safety analysis included all patients who received ≥ 1 dose of M2698. PK analysis included all patients who received ≥ 1 dose of M2698 and had measurable plasma concentrations. Dose proportionality was tested using the power model (linear regression approach on the log -transformed scale).

Q: Which results are given for `NC(=O)c1cccc2c(N[C@H](CN3CCC3)c3ccc(Cl)c(C(F)(F)F)c3)ncnc12` [M2698]?
A: M2698-related TEAE: Ataxia (75 mg n=4): 0; M2698-related TEAE: Blood and lymphatic system disorders (75 mg n=4): 0; M2698-related TEAE: Blood creatine phosphokinase increased (75 mg n=4): 1; M2698-related TEAE: Blood creatinine increased (75 mg n=4): 0; M2698-related TEAE: Cardiac disorders (75 mg n=4): 0; M2698-related TEAE: Cognitive disorder (75 mg n=4): 0; M2698-related TEAE: Constipation (75 mg n=4): 0; M2698-related TEAE: Decreased appetite (75 mg n=4): 0; M2698-related TEAE: Delusion (75 mg n=4): 0; M2698-related TEAE: Depression (75 mg n=4): 0; M2698-related TEAE: Diarrhoea (75 mg n=4): 0; M2698-related TEAE: Diarrhoea haemorrhagic (75 mg n=4): 0; M2698-related TEAE: Dizziness (75 mg n=4): 0; M2698-related TEAE: Dry eye (75 mg n=4): 0; M2698-related TEAE: Dry mouth (75 mg n=4): 0; M2698-related TEAE: Dysgeusia (75 mg n=4): 1; M2698-related TEAE: Dyspepsia (75 mg n=4): 0; M2698-related TEAE: Dysphagia (75 mg n=4): 0; M2698-related TEAE: Energy increased (75 mg n=4): 0; M2698-related TEAE: Erythema (75 mg n=4): 0; M2698-related TEAE: Euphoric mood (75 mg n=4): 0; M2698-related TEAE: Eye disorders (75 mg n=4): 0; M2698-related TEAE: Fatigue (75 mg n=4): 0; M2698-related TEAE: Gamma-glutamyltransferase increased (75 mg n=4): 0; M2698-related TEAE: Gastrointestinal disorders (75 mg n=4): 0; M2698-related TEAE: Gastrooesophageal reflux disease (75 mg n=4): 0; M2698-related TEAE: General disorders and administration site conditions (75 mg n=4): 0; M2698-related TEAE: Headache (75 mg n=4): 0; M2698-related TEAE: Hyperhidrosis (75 mg n=4): 0; M2698-related TEAE: Hypokalaemia (75 mg n=4): 0; M2698-related TEAE: Hypomagnesaemia (75 mg n=4): 0; M2698-related TEAE: Insomnia (75 mg n=4): 0; M2698-related TEAE: Investigations (75 mg n=4): 1; M2698-related TEAE: Lipase increased (75 mg n=4): 0; M2698-related TEAE: Lymphopenia (75 mg n=4): 0; M2698-related TEAE: Metabolism and nutrition disorders (75 mg n=4): 0; M2698-related TEAE: Mucosal inflammation (75 mg n=4): 0; M2698-related TEAE: Nausea (75 mg n=4): 0; M2698-related TEAE: Nervous system disorders (75 mg n=4): 1; M2698-related TEAE: Nightmare (75 mg n=4): 1; M2698-related TEAE: Onychomadesis (75 mg n=4): 0; M2698-related TEAE: Paranoia (75 mg n=4): 0; M2698-related TEAE: Photosensitivity reaction (75 mg n=4): 0; M2698-related TEAE: Posterior reversible encephalopathy syndrome (75 mg n=4): 0; M2698-related TEAE: Pruritus generalised (75 mg n=4): 0; M2698-related TEAE: Psychiatric disorders (75 mg n=4): 1; M2698-related TEAE: Rash (75 mg n=4): 0; M2698-related TEAE: Rash maculo-papular (75 mg n=4): 1; M2698-related TEAE: Skin and subcutaneous tissue disorders (75 mg n=4): 1; M2698-related TEAE: Subjects with at least one event (75 mg n=4): 2; M2698-related TEAE: Transaminases increased (75 mg n=4): 0; M2698-related TEAE: Tremor (75 mg n=4): 0; M2698-related TEAE: Vision blurred (75 mg n=4): 0; M2698-related TEAE: Vomiting (75 mg n=4): 0; M2698-related TEAE: White blood cell count decreased (75 mg n=4): 0; M2698-related TEAE: Abnormal dreams (110 mg n=4): 0; M2698-related TEAE: Affect lability (110 mg n=4): 0; M2698-related TEAE: Alanine aminotransferase increased (110 mg n=4): 0; M2698-related TEAE: Amylase increased (110 mg n=4): 0; M2698-related TEAE: Anaemia (110 mg n=4): 0; M2698-related TEAE: Angina pectoris (110 mg n=4): 0; M2698-related TEAE: Anxiety (110 mg n=4): 0; M2698-related TEAE: Aphasia (110 mg n=4): 0; M2698-related TEAE: Ataxia (110 mg n=4): 0; M2698-related TEAE: Blood and lymphatic system disorders (110 mg n=4): 0; M2698-related TEAE: Blood creatine phosphokinase increased (110 mg n=4): 0; M2698-related TEAE: Blood creatinine increased (110 mg n=4): 0; M2698-related TEAE: Cardiac disorders (110 mg n=4): 0; M2698-related TEAE: Cognitive disorder (110 mg n=4): 0; M2698-related TEAE: Constipation (110 mg n=4): 1; M2698-related TEAE: Decreased appetite (110 mg n=4): 0; M2698-related TEAE: Delusion (110 mg n=4): 0; M2698-related TEAE: Depression (110 mg n=4): 0; M2698-related TEAE: Diarrhoea (110 mg n=4): 0; M2698-related TEAE: Diarrhoea haemorrhagic (110 mg n=4): 0; M2698-related TEAE: Dizziness (110 mg n=4): 0; M2698-related TEAE: Dry eye (110 mg n=4): 0; M2698-related TEAE: Dry mouth (110 mg n=4): 0; M2698-related TEAE: Dysgeusia (110 mg n=4): 0; M2698-related TEAE: Dyspepsia (110 mg n=4): 0; M2698-related TEAE: Dysphagia (110 mg n=4): 0; M2698-related TEAE: Energy increased (110 mg n=4): 0; M2698-related TEAE: Erythema (110 mg n=4): 0; M2698-related TEAE: Euphoric mood (110 mg n=4): 0; M2698-related TEAE: Eye disorders (110 mg n=4): 0; M2698-related TEAE: Fatigue (110 mg n=4): 0; M2698-related TEAE: Gamma-glutamyltransferase increased (110 mg n=4): 0; M2698-related TEAE: Gastrointestinal disorders (110 mg n=4): 1; M2698-related TEAE: Gastrooesophageal reflux disease (110 mg n=4): 0; M2698-related TEAE: General disorders and administration site conditions (110 mg n=4): 0; M2698-related TEAE: Headache (110 mg n=4): 0; M2698-related TEAE: Hyperhidrosis (110 mg n=4): 0; M2698-related TEAE: Hypokalaemia (110 mg n=4): 0; M2698-related TEAE: Hypomagnesaemia (110 mg n=4): 0; M2698-related TEAE: Insomnia (110 mg n=4): 0; M2698-related TEAE: Investigations (110 mg n=4): 0; M2698-related TEAE: Lipase increased (110 mg n=4): 0; M2698-related TEAE: Lymphopenia (110 mg n=4): 0; M2698-related TEAE: Metabolism and nutrition disorders (110 mg n=4): 0
